Laboratory results reported in patent publication US7601739B2, “Compounds having antiestrogenic and tissue selective estrogenic properties, and compounds with anti-androgenic properties for treatment of prostate cancer and androgen receptor dependent diseases” (Virgina Commonwealth University, priority 2006, dated 2009).

Key:
hERα = target: T1, hERα (Homo sapiens, UniProt P03372); assay: Transient transfection reporter assay for hERα in MCF-7 cells; type: cell-based; design: Relative Estrogenic Activity: dose or concentration left out as unconfirmed; settings: for Relative Estrogenic Activity: MCF-7 cells transfected with hERα, DMSO set as 1; for estrogenic effect: compared with DMSO and tamoxifen; for Relative Antiestrogenic Activity at 2.5 μM: with 1 nM estradiol, 1 nM E2 used as reference (1)
T1 construct: mammalian expression plasmid containing full length human ER cDNA, pCMV-hER; expressed in transfected cells; host or cells: MCF-7 human breast cancer cells
T1 sequence (P03372 1-595): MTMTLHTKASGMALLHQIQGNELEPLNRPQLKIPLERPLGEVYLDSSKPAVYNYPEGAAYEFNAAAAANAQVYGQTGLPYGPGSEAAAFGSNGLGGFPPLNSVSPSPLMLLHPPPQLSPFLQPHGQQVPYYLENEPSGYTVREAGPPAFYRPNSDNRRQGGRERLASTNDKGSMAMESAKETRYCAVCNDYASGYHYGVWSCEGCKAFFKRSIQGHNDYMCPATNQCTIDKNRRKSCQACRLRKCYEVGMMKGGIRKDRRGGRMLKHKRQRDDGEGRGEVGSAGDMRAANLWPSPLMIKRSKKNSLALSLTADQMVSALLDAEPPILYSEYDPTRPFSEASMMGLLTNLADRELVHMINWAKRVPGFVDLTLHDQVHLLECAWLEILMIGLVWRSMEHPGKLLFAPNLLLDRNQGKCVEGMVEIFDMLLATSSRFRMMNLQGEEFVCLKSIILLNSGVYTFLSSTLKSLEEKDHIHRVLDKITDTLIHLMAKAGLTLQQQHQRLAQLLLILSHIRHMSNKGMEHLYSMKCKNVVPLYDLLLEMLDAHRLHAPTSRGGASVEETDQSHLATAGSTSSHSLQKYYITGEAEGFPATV
Experimental: For the transient transfection reporter assays, the cells were plated in triplicate in 12-well plates at a density of 300000 cells/well in the phenol red-free DMEM (GIBCO/BRL, Grand Island, N.Y.) supplemented with 10% charcoal-stripped fetal bovine serum (Hyclone, Logan, Utah), Penicillin (100 unit/ml)/Streptomycin ([…]), 2 mML-glutamine and 1 mM sodium Pyruvate. 24 hrs later, the cells were transfected with three plasmids by using Superfect transfection kit (Qiagen, Valencia, Calif.). For the detection of hER activity, cells were transfected with 2 g hER expression plasmid (pCMV-ER ), 6 g luciferase reporter plasmid containing estrogen receptor response element (PGL-TATA-Luc), and 600 ng normalization control, β-galactosidase reporter plasmid (pCMV ). For the detection of hER activity, cells were transfected with 3 ug hER expression plasmid (pcDNA3.1-hER), 6 g luciferase reporter plasmid containing estrogen receptor response element (PGL-TATA-Luc), and 600 ng pCMV. For determining the influence of ER's major coactivator in breast, AIB 1, 2 g pcDNA3.1-AIB1 was added into the transfection plasmid solution mentioned previously.
The transfected cells were rinsed with PBS and treated with various concentrations of test molecules and one […] (vehicle, DMSO or methanol) in phenol red-free culture medium. After incubation for further 24 hrs, the cells were washed with PBS and lysed with lysis buffer (Pierce, Rockford, Ill.). The lysate was used to determine the luciferase activity for ER's activity and the β-galactosidase activity for the normalization of transfection efficiency.
For the luciferase activity assay, 20 μl of lysate and 100 μl luciferase assay buffer (Promega, Madison, Wis.) were added into a well of 96-well plate. The luminescence was detected by using luminescence microplate reader, LumiCount (Packard, Boston, Mass.). For the β-galactosidase activity assay, […] β-galactosidase assay buffer (Clontech, Palo Alto, Calif.) were added into a well of 96-well plate. The β-galactosidase activity was measured as luminescence strength by using luminescence microplate reader, LumiCount (Packard, Boston, Mass.). The normalized reporter activity was calculated by the luciferase activity divided by that of β-galactosidase.
The transient transfection reporter assay was used to determine the estrogenic or antiestrogenic activity of tested compounds in employed human breast cancer cells, MCF-7 cells that are cotransfected with hERα expression and reporter plasmids. […] […] The estrogenic (antiestrogenic) activity was determined by dividing the luciferase activity by the β-galactosidase activity. To determine the influence of estrogen receptor's major coactivator in breast cancer, AIB1, for the compounds' estrogenic activity, the expression vector of AIB1 was additionally cotransfected with the plasmids mentioned above.

hER = assay: Fluorescence-based competitive binding assay for hER (displacement of fluormone ES2); design: species or system human; settings: RBA = IC50 of tamoxifen/IC50 of test molecule; tamoxifen set at 1
Experimental: The estrogen receptor competitor assay kits (Panvera, Madison, Wis.) were used to determine the ability of test molecules to displace the fluormone, ES2, from hER -ES2 or hER -ES2 complex. Serial dilutions of each test molecule were prepared in methanol or DMSO. The recombinant hER or hER (7 nM) was preincubated with ES2 (1 nM) in screening buffer. After the preincubation, the test molecules and ER-ES2 complex solution were added into the 96-well microplate to produce a final volume of 100 μl per well. The reaction was incubated at room temperature for 1 hr and the polarization values were measured by using fluorescence microplate reader, Polarion (Tecan, Research Triangle Park, N.C.) with excitation wavelength 495 nm and emission wavelength 535 nm. The polarization value versus test molecule concentration curves was analyzed by graphfit software to generate IC50 values.
In this assay, recombinant hER and the commercial synthetic estrogen, ES2 containing fluorescence polarization property, are used. This assay is a homogenous assay. When the assay solution only contains ES2, the solution exerts weak fluorescence polarization property due to the quick rotation of free ES2 molecule. […] Addition of the antiestrogen to the ES2/hER displaces ES2 from hER and results in the whole solution exerting less fluorescence polarization property than the solution without antiestrogen.

MCF-7 cells = assay: hERα positive breast cancer cell proliferation assay; type: cell-based, human; settings: for activity at 5 µM: Homo sapiens, MCF7, 72 h, MCF-7 cells, DMSO = 1, read-out: Relative Cancer Cell Proliferation Effects at 5 μM
Experimental: (§1) MCF-7 or MDA-MB-231 cells were inoculated into 12-well culture plates at 10000 cells in 2 ml maintained medium per well. Cells were allowed to attach to the bottom for 24 hrs incubation, then the seeding medium was removed and replaced by the experimental medium (phenol red-free DMEM supplemented with 5% charcoal-stripped fetal bovine serum and Penicillin (100 unit/ml)/Streptomycin ([…])). After 24 hr incubation, the test molecules dissolved in DMSO were added in the wells. […] The culture was continued for 3 days and the medium and tested compounds were replaced every two days. The final cell numbers were estimated with CellTiter proliferation assay kit (Promega, Madison, Wis.) by measuring the absorbance at 570 nm, which is directly proportional to the number of living cells in the culture.
MCF-7 cell line was used to perform this assay and the description of this assay as mentioned above. […] DMSO was used as reference.

MDA-MB-231 cells = assay: hER negative breast cancer cell proliferation assay; type: cell-based, human; settings: hER negative cell line
Experimental: as §1
In this assay, MDA-MB-231 breast cancer cell line, a hER negative cell line, was used. DMSO was used as reference.

SMILES	Relative Estrogenic Activity (hERα)	estrogenic effect (hERα; MCF-7 cells, hERα)	Relative Antiestrogenic Activity at 2.5 μM (hERα)	Relative Binding Affinity (hER)	antiestrogenic / inhibition activity (hERα; against 1 nM estrogen)	antiestrogenic activity against various concentrations of estrogen (FIG. 4) (hERα; MCF-7 cells, hERα)	activity at 5 µM (MCF-7 cells) [%]	inhibition effects against MCF-7 cell proliferation (MCF-7 cells)	stimulation of growth of DMSO-treated MCF-7 cells (MCF-7 cells; 2 nM estrogen) [%]	proliferation effects against MDA-MB-231 cells (FIG. 6, words) (MDA-MB-231 cells)	inhibition of MCF-7 cell proliferation (MCF-7 cells; relative to DMSO) [%]
CCCCNC(=O)CCCCCCCCCCOCC1Cc2ccccc2CN1C(=O)c1ccccc1F (stereo not shown) [Compound 1]	1.02	do not exert any estrogenic effects	1.17	0.225	–	can antagonize estrogen's action in a dose dependent manner	106	–	–	–	–
CCCCNC(=O)CCCCCCCCCCOCC1Cc2ccccc2CN1C(=O)c1ccc(F)cc1 (stereo not shown) [Compound 3]	1.09	do not exert any estrogenic effects	0.93	0.264	–	–	91	slight inhibition effects	–	–	–
CCCCNC(=O)CCCCCCCCCCOCC1Cc2ccccc2CN1C(=O)c1ccc(OC)cc1 (stereo not shown) [Compound 5]	1.06	do not exert any estrogenic effects	1.64	0.14	–	–	98	–	–	–	–
CCCCCCCCNC(=O)CCCCCCCCCCOCC1Cc2ccccc2CN1C(=O)c1cccc(F)c1 (stereo not shown) [Compound 11, 11-[2-(3-Fluoro-benzoyl)-1,2,3,4-tetrahydro-isoquinolin-3-ylmethoxy]-undecanoic acid octylamide]	0.83	do not exert any estrogenic effects	1.11	0.177	–	–	100	–	–	–	–
CCCCNC(=O)CCCCCCCCCCOCC1Cc2ccccc2CN1C(=O)Cc1cccc(F)c1 (stereo not shown) [Compound 12, 11-{2-[2-(3-Fluoro-phenyl)-acetyl]-1,2,3,4-tetrahydro-isoquinolin-3-ylmethoxy]-undecanoic acid butylamide]	1.68	–	1.01	0.267	–	–	120	–	–	–	–
C[C@]12CC[C@@H]3c4ccc(O)cc4CC[C@H]3[C@@H]1CC[C@@H]2O [Compound E2, estradiol, reference compound]	–	–	–	–	–	–	–	–	150	–	–
CC/C(=C(\c1ccccc1)c1ccc(OCCN(C)C)cc1)c1ccccc1 [Tamoxifen, reference compound]	–	–	–	–	–	–	42	–	–	moderate anti-proliferation effects	58

More lines, main results first:

Relative Estrogenic Activity (hERα)	estrogenic effect (hERα; MCF-7 cells, hERα)	Relative Antiestrogenic Activity at 2.5 μM (hERα)	Relative Binding Affinity (hER)	antiestrogenic / inhibition activity (hERα; against 1 nM estrogen)	SMILES	antiestrogenic activity against various concentrations of estrogen (FIG. 4) (hERα; MCF-7 cells, hERα)	activity at 5 µM (MCF-7 cells) [%]	inhibition effects against MCF-7 cell proliferation (MCF-7 cells)	stimulation of growth of DMSO-treated MCF-7 cells (MCF-7 cells; 2 nM estrogen) [%]	proliferation effects against MDA-MB-231 cells (FIG. 6, words) (MDA-MB-231 cells)	inhibition of MCF-7 cell proliferation (MCF-7 cells; relative to DMSO) [%]
1.32	–	0.75	0.156	moderate antiestrogenic effect	CCCCNC(=O)CCCCCCCCCCOCC1Cc2ccccc2CN1C(=O)c1cccc(C)c1 (stereo not shown) [Compound 8, 11-[2-(3-Methyl-benzoyl)-1,2,3,4tetrahydro-isoquinolin-3-ylmethoxy]-undecanoic acid butylanide]	–	84	slight inhibition effects	–	–	–
1.72	–	1.34	0.132	–	CCCCNC(=O)CCCCCCCCCCOCC1Cc2ccccc2CN1C(=O)c1ccc(C)cc1 (stereo not shown) [Compound 9, 11-[2-(4-Methyl-benzoyl)-1,2,3,4-tetrahydro-isoquinolin-3-ylmethoxy]-undecanoic acid butylamide]	–	101	–	–	–	–
0.68	do not exert any estrogenic effects	0.83	0.156	–	CCCCNC(=O)CCCCCCCCCCOCC1Cc2ccccc2CN1C(=O)c1cccc(Cl)c1 (stereo not shown) [Compound 10, 11-[2-(3-Chloro-benzoyl)-1,2,3,4tetrahydro-isoquinolin-3-ylmethoxy]-undecanoic acid butylamide]	–	86	slight inhibition effects	–	–	–
